Test results published in patent US20020004458A1, “Methods for inducing production of isoflavone levels in plants using nuclear receptor ligands” (priority 2000, published 2002).

Assays:
Format in all cases: in vivo
[1] = system: soybean cotyledons (cultivar Williams); assay: Soybean cut cotyledon assay: potentiation of glyceollin (phytoalexin) elicitation by glucan elicitor; settings: 33 uM, applied immediately before glucan elicitor and 10 uM orthovanadate, 48 hr, average of two experiments
Procedure: (§1) The cut cotyledon assay is used to investigate both the ability of the nuclear receptor ligand to activate basal elicitation competency in plants, and to evaluate the ability of a second compound such as the glucan defense elicitor from the fungal pathogen Phytophthora sojae to enhance glyceollin elicitation competency in plants in which the isoflavone pools were “loaded” by the action of the ligand. The level of isoflavones in the cotyledon tissues are measured after the addition of different nuclear receptor ligands to determine the effectiveness of each in inducing the basal production of isoflavones in cotyledon tissues. In such studies, the addition of the nuclear receptor ligand first “primes” the cut cotyledon, i.e., increases the levels of the isoflavone daidzen. That is, the competency for the elicitation of the phytoalexin glyceollin in response to the glucan elicitor from Phytophthora sojae is already partially activated. This means that increases in the isoflavone daidzein, which is the precursor for glyceollin, are usually rapidly shunted into glyceollin when the glucan defense elicitor is added to the system. Thus, the ability of the ligand to enhance glyceollin elicitation competency by “loading” the isoflavone pools can also be measured.
(§2) Cotyledons from 7-8 day old soybean seedlings are removed from the plant and cut on the lower surface to expose subepidermal tissues. A 30 p,L drop of test compound (elicitor and/or loader) is placed on the cut surface. Ten cotyledons are used per treatment and arranged in a petri plate containing a wet filter paper to keep the cotyledons moist. After incubation at room temperature at approximately 200 p.Einsteins of light for 48 hr the cotyledon tissues are harvested for analysis. Tissues for analysis are harvested by cutting a vertical column of cells from the cotyledon using a number 1 cork borer. The column of cells is then subsampled by cutting slices of cells progressively away from the original cut surface. The first section is approximately 4 cell layers thick and the second two are approximately 8 cell layers thick. These allow the examination of proximal and distal effects of treatments, respectively. Tissues are analyzed by HPLC as noted below. Full details of this assay can be found in the publication: Graham, T. L., and Graham, M. Y. 1991. Glyceollin Elicitors Induce Major But Distinctly Different Shifts in Isoflavonoid Metabolism in Local and Distal Cell Populations. Molecular Plant Microbe Interactions 4:60-68, which is specifically incorporated herein by reference.
(§3) High performance liquid chromatography (HPLC) is the . method of choice for determining the levels of isoflavone defense compounds in soybean. With a single HPLC analysis, one gets a complete and quantitative profile of up to 50 or more aromatic compounds, including all the isoflavones and their conjugates and the phytoalexins, including glyceollin. As little as 20 mg of plant tissue is needed and the method can be readily applied to cotyledon, leaf or any soybean tissue. This analytical method allows us to determine the nmoles/gm of each metabolite, which can then readily be processed to compare the percent increase or decrease of a given metabolite in comparison to either water or glucan treated control tissues. Routinely, tissues are extracted in 80% ethanol and subjected to water/acetonitrile gradient elution from a C18 reverse phase HPLC column. Full details of this procedure can be found in the publication: Graham, T. L. 1991. A Rapid, High Resolution High Performance Liquid Chromatography Profiling Procedure for Plant and Microbial Aromatic Secondary Metabolites. Plant Physiology 95:584-593, which is specifically incorporated herein by reference.
(§4) Cotyledons (10 per treatment) from 7 day old Williams variety soybean were treated with a formulation comprising estrogens, estrogen agonists, and peroxisome proliferators. […]

[2] = system: soybean cotyledons (cultivar Williams); assay: Soybean snapped cotyledon assay: loading of isoflavone (daidzein) conjugate pools
Procedure: The snapped cotyledon assay is a minimal wound assay used to investigate the effects of test compounds in a non-primed background. The assay is performed by snapping cotyledons in two and placing the petiole side down in 0.5% water agar. Ten snapped cotyledons are used per treatment, and the subepidermal cells exposed by snapping are treated with glucan defense elicitor and/or the effector being examined. The cotyledons are incubated in the light for 48 hr as in the cut cotyledon assay. Both proximal (first cell layer) and distal (second and third cell layers) are harvested for analysis by HPLC (see below). Full details of this assay can be found in the publication: Graham, T. L. and Graham, M. Y. 1996. Signaling in soybean phenylpropanoid responses: dissection of primary, secondary and conditioning-effects of light, wounding and elicitor treatments. Plant Physiol. 110:1123-1133, which is specifically incorporated herein by reference.
The snapped cotyledon assay is “naive”. That is, it is not pre-disposed or primed for competency for the elicitation of phytoalexin glyceollin in response to the glucan elicitor. Thus, treatment with the glucan elicitor induces the formation of the isoflavones daidzein and genistein, but very little glyceollin. This is an excellent assay to study the effects of a chemical treatment on isoflavone metabolism by itself or in combination with the glucan. In the absence of the glucan, it gives an excellent picture of the effects of the compound alone on isoflavone metabolism. In the presence of the glucan, it tells us if the test compound can induce elicitation competency for the glyceollin response to the glucan.
as §3
Cotyledons (10 per treatment) from 7 day old Williams variety soybean were treated with a formulation comprising estrogens, estrogen agonists, and peroxisome proliferators. Each NRL was dissolved either in water or first in isopropanol to give a saturated solution followed by rapid dilution in water. […] NRLs were tested over a concentration range of about 10 uM to 1 mM, using serial 3 fold dilutions from 1 mM. NRLs were tested both alone and in the presence of 30 ug/ml of the glucan elicitor from the fungal pathogen Phytophthora sojae. Concentrations of the NRL and glucan noted here are final concentrations on the treated cotyledon.
The exposed surface of each snapped cotyledon was treated with 7 μL of the NRL followed by 7 μL of the glucan or water. Cotyledons were incubated in constant light (200 t;,Einsetins) for 48 hr. At 48 hr, a thin (translucent) section was harvested from the treated cotyledon surface. Sections from the 10 cotyledons for each treatment were pooled and extracted in 80% ethanol (400 μL for each 50 mG fresh weight). The extract was then subjected to HPLC as described above. […]

[3] = system: soybean cotyledons (cultivar Williams); assay: Soybean cut cotyledon assay: loading of daidzein conjugate / isoflavone pools; settings: for Percent increase in total daidzein conjugate pools compared to a water control (Table 2) / Percent increase in total daidzein conjugate pools compared to a water control (Table 4): 33 uM, average of two experiments
Procedure: as §1, §2, §3, §4

[4] = system: cotyledons of lima bean, mung bean, green bean, peanuts, and chickpeas; assay: Cut cotyledon assay on legumes other than soybean: increase in isoflavones; settings: ergosterol at 100 p,M; range in each plant species; isoflavones identified by ultraviolet spectra
soybean primary leaves = assay: Soybean leaf infiltration: isoflavone increases after ergosterol treatment; settings: 48 hours, over control
Procedure: as §3
True leaves of soybean plants are also treated as described above in Example 1. For tests on true leaves of soybean or other plants, two methods are used. In the laboratory a small spot on the leaves is vacuum filtrated using a filter disc platform hooked to a water aspirator. The leaf is placed on the filter disc platform and mild suction applied. A drop of the glucan elicitor and the nuclear receptor ligand formulation is then placed on the exposed surface of the leaf and allowed to infiltrate the tissue through the leaf stomatal pores. For the greenhouse or field, the nuclear receptor ligand is added to a surfactant to emulsify and disperse the ligand. In all of these assays, the tissues are again analyzed by HPLC as described above.
Moreover, the isoflavone formononetin is normally found only as a trace metabolite in soybean tissues. It is commonly found in chickpea. Treatment of soybean leaves with a nuclear receptor ligand, however, caused very significant accumulations of daidzein and formononetin aglycones and genistein conjugates. […] Ergosterol was directly infiltrated into the primary leaves, which were analyzed after 48 hours.

[5] = 33 uM, average of two experiments
[6] = ergosterol 1 micromolar infiltrated into primary leaves
[7] = ergosterol 10 micromolar infiltrated into primary leaves
[8] = ergosterol 100 micromolar infiltrated into primary leaves
[9] = cut cotyledon assay, Williams cotyledons, concentrations 50-500 p,M

CC(C)(Oc1ccc(C2CC2(Cl)Cl)cc1)C(=O)O (centres unmarked) [Ciprofibrate, ciprofibrate]
Percent increase in glyceollin elicitation compared to a glucan elicitor control [1]: 199%
Percent increase in daidzein conjugate pools compared to a water control (Table 3) [2, 5]: +52%
Percent increase in total daidzein conjugate pools compared to a water control (Table 2) ([3]; cut cotyledon assay): 52%
Percent increase in total daidzein conjugate pools compared to a water control (Table 4) ([3]; cut cotyledon assay): 52%

O=c1oc2cc(O)ccc2c2oc3cc(O)ccc3c12 [Coumestrol]
Percent increase in glyceollin elicitation compared to a glucan elicitor control [1]: 226%
Percent increase in total daidzein conjugate pools compared to a water control (Table 2) ([3]; cut cotyledon assay): 54%
Percent increase in total daidzein conjugate pools compared to a water control (Table 4) ([3]; cut cotyledon assay): 54%

CC(C)[C@@H](C)/C=C/[C@@H](C)[C@H]1CC[C@H]2C3=CC=C4C[C@@H](O)CC[C@]4(C)[C@H]3CC[C@]12C [Ergosterol, ergosterol]
Increases in isoflavones [4]: 2-60 fold
Percent increase in glyceollin elicitation compared to a glucan elicitor control [1]: 260%
Increase in Daidzein Aglycone (soybean primary leaves; [6]): 5X
Increase in Formononetin Aglycone (soybean primary leaves; [6]): 24X
Increase in Genistein Conjugates (soybean primary leaves; [6]): 2X
Increase in Daidzein Aglycone (soybean primary leaves; [7]): 3X
Increase in Formononetin Aglycone (soybean primary leaves; [7]): 27X
Increase in Genistein Conjugates (soybean primary leaves; [7]): 1.1X
Increase in Daidzein Aglycone (soybean primary leaves; [8]): 2.4X
Increase in Formononetin Aglycone (soybean primary leaves; [8]): 4X
Increase in Genistein Conjugates (soybean primary leaves; [8]): None
Percent increase in daidzein conjugate pools compared to a water control (Table 3) [2, 5]: +60%
Percent increase in total daidzein conjugate pools compared to a water control (Table 2) ([3]; cut cotyledon assay): 60%
Percent increase in total daidzein conjugate pools compared to a water control (Table 4) ([3]; cut cotyledon assay): 60%

C[C@]12CCC(=O)C=C1CC[C@@H]1[C@@H]2C(=O)C[C@@]2(C)[C@H]1CC[C@]2(O)C(=O)CO [cortisone]
Range of increase of isoflavones over the concentration range [3, 9]: 30-100%

C[C@]12CC[C@@H]3c4ccc(O)cc4CC[C@H]3[C@@H]1CC[C@@H]2O [Beta-Estradiol, 17-beta-estradiol]
Percent increase in glyceollin elicitation compared to a glucan elicitor control [1]: 205%
Percent increase in daidzein conjugate pools compared to a water control (Table 3) [2, 5]: +64%
Percent increase in total daidzein conjugate pools compared to a water control (Table 2) ([3]; cut cotyledon assay): 64%
Percent increase in total daidzein conjugate pools compared to a water control (Table 4) ([3]; cut cotyledon assay): 64%

C/C=C(/C(=C/C)c1ccc(O)cc1)c1ccc(O)cc1 [Dienestrol, dienestrol]
Percent increase in glyceollin elicitation compared to a glucan elicitor control [1]: 75%
Percent increase in daidzein conjugate pools compared to a water control (Table 3) [2, 5]: +28%
Percent increase in total daidzein conjugate pools compared to a water control (Table 2) ([3]; cut cotyledon assay): 28%
Percent increase in total daidzein conjugate pools compared to a water control (Table 4) ([3]; cut cotyledon assay): 28%

CC(C)(Oc1ccccc1Cl)C(=O)O [CPMPA, 2-(o-chlorophenoxy)-2-methylpropionic acid]
Percent increase in daidzein conjugate pools compared to a water control (Table 3) [2, 5]: +42%

O=c1c(-c2ccc(O)cc2)coc2cc(O)cc(O)c12 [Genistein, genistein]
Percent increase in daidzein conjugate pools compared to a water control (Table 3) ([2]; genistein applied as smaller doses on an hourly basis for 8 hours): +54%

C[C@@H]1C[C@H]2[C@@H]3CCC4=CC(=O)C=C[C@]4(C)[C@@]3(F)[C@@H](O)C[C@]2(C)[C@@]1(O)C(=O)CO [dexamethasone]
Range of increase of isoflavones over the concentration range [3, 9]: 0-10%

C[C@H]1CCCC(=O)CCC/C=C/c2cc(O)cc(O)c2C(=O)O1 [Zearalenone, zearalenone]
Percent increase in glyceollin elicitation compared to a glucan elicitor control [1]: 242%
Percent increase in total daidzein conjugate pools compared to a water control (Table 2) ([3]; cut cotyledon assay): 58%
Percent increase in total daidzein conjugate pools compared to a water control (Table 4) ([3]; cut cotyledon assay): 58%

C[C@]12CCC(=O)C=C1CC[C@@H]1[C@@H]2[C@@H](O)C[C@@]2(C)[C@H]1CC[C@]2(O)C(=O)CO [hydrocortisone]
Range of increase of isoflavones over the concentration range [3, 9]: 25-50%

C[C@]12CC[C@@H](O)C[C@@H]1CC[C@@H]1[C@@H]2CC[C@]2(C)C(=O)CC[C@@H]12 [androsterone]
Range of increase of isoflavones over the concentration range ([3]; in vivo): 30-40%

CC/C(=C(/CC)c1ccc(O)cc1)c1ccc(O)cc1 [Diethylstilbestrol, diethylstilbestrol]
Percent increase in glyceollin elicitation compared to a glucan elicitor control [1]: 86%
Percent increase in total daidzein conjugate pools compared to a water control (Table 2) ([3]; cut cotyledon assay): 36%
Percent increase in total daidzein conjugate pools compared to a water control (Table 4) ([3]; cut cotyledon assay): 38%

CC(=O)[C@H]1CC[C@H]2[C@@H]3CCC4=CC(=O)CC[C@]4(C)[C@H]3CC[C@]12C [Progesterone, progesterone]
Range of increase of isoflavones over the concentration range [3, 9]: 20-60%

CC(=O)[C@H]1CC[C@H]2[C@@H]3CC=C4C[C@@H](O)CC[C@]4(C)[C@H]3CC[C@]12C [5-pregnenolone]
Range of increase of isoflavones over the concentration range [3, 9]: 5-20%

C[C@]12CC[C@@H]3c4ccc(O)cc4CC[C@H]3[C@@H]1C[C@@H](O)[C@@H]2O [Estriol, estriol]
Percent increase in glyceollin elicitation compared to a glucan elicitor control [1]: 177%
Percent increase in daidzein conjugate pools compared to a water control (Table 3) [2, 5]: +45%
Percent increase in total daidzein conjugate pools compared to a water control (Table 2) ([3]; cut cotyledon assay): 45%
Percent increase in total daidzein conjugate pools compared to a water control (Table 4) ([3]; cut cotyledon assay): 45%
